Data from US11390604B2 (Hoffmann-La Roche Inc., priority 2019, dated 2022).
Counter-ions that a name gives are not always drawn.

tested on: Acinetobacter baumannii ATCC 17961; assay: Antimicrobial susceptibility testing: 90% growth inhibitory concentration (IC90) determination; format: cell-based; conditions: ATCC17961, Acinetobacter baumannii ATCC 17961, Iso-Sensitest broth, read-out: ATCC 17961 IC90
Procedure, shortened: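 Growth was followed kinetically by OD600 at 20-min intervals for 16 h at 35±2 °C, with ~5×10^5 CFU/ml in Iso-Sensitest broth. Compounds were tested as twofold dilutions (e.g. 50–0.097 μM final). The concentration giving 90% inhibition of log-phase growth was reported.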

Compound | IC90 [nM]
Cn1c(-c2cn(C3CC3)nc2C(F)(F)F)cnc1C(=O)Nc1ccc(C(=O)N2CCC(CN)CC2)c(Cl)c1 [Example 207, N-(4-(4-(aminomethyl)piperidine-1-carbonyl)-3-chlorophenyl)-5-(1-cyclopropyl-3-(trifluoromethyl)-1H-pyrazol-4-yl)-1-methyl-1H-imidazole-2-carboxamide formate] | 226
Cn1c(-c2cn(CC3CC3)nc2C(F)(F)F)cnc1C(=O)Nc1ccc(C(=O)N2CCN(C(=O)C3CNC3)CC2)c(Cl)c1 [Example 208, N-(4-(4-(azetidine-3-carbonyl)piperazine-1-carbonyl)-3-chlorophenyl)-5-(1-(cyclopropylmethyl)-3-(trifluoromethyl)-1H-pyrazol-4-yl)-1-methyl-1H-imidazole-2-carboxamide] | 226
Cn1c(-c2cn(CC3CC3)nc2C(F)(F)F)cnc1C(=O)Nc1ccc(C(=O)N2CCN(C(=O)CN)CC2)c(Cl)c1 [Example 209, N-(3-chloro-4-(4-glycylpiperazine-1-carbonyl)phenyl)-5-(1-(cyclopropylmethyl)-3-(trifluoromethyl)-1H-pyrazol-4-yl)-1-methyl-1H-imidazole-2-carboxamide] | 230
Cn1c(-c2cn(CC(F)F)nc2C(F)(F)F)cnc1C(=O)Nc1ccc(S(=O)(=O)N2CCN(C(=O)[C@H]3CC[C@@H](N)C3)CC2)c(Cl)c1 [Example 211, N-(4-((4-((1S,3R)-3-aminocyclopentane-1-carbonyl)piperazin-1-yl)sulfonyl)-3-chlorophenyl)-5-(1-(2,2-difluoroethyl)-3-(trifluoromethyl)-1H-pyrazol-4-yl)-1-methyl-1H-imidazole-2-carboxamide hydrochloride] | 231
Cn1c(-c2cn(C3CC3(F)F)nc2C(F)(F)F)cnc1C(=O)Nc1ccc(C(=O)N2CC3C(N)C3C2)c(Cl)c1 (centres unmarked) [Example 212, N-(4-(6-amino-3-azabicyclo[3.1.0]hexane-3-carbonyl)-3-chlorophenyl)-5-(1-(2,2-difluorocyclopropyl)-3-(trifluoromethyl)-1H-pyrazol-4-yl)-1-methyl-1H-imidazole-2-carboxamide formate] | 235
Cn1c(-c2cn(CC(F)F)nc2C(F)(F)F)cnc1C(=O)Nc1ccc(C(=O)N2CCN(C(=O)[C@H]3[C@@H]4CNC[C@@H]43)CC2)c(F)c1 [Example 213, rac-N-(4-(4-((1R,5S,6r)-3-azabicyclo[3.1.0]hexane-6-carbonyl)piperazine-1-carbonyl)-3-fluorophenyl)-5-(1-(2,2-difluoroethyl)-3-(trifluoromethyl)-1H-pyrazol-4-yl)-1-methyl-1H-imidazole-2-carboxamide] | 240
Cn1c(-c2cn(C3CC3)nc2C(F)(F)F)cnc1C(=O)Nc1ccc(C(=O)N2CCN(C(=O)NCC3CNC3)CC2)c(Cl)c1 [Example 214, N-(azetidin-3-ylmethyl)-4-(2-chloro-4-(5-(1-cyclopropyl-3-(trifluoromethyl)-1H-pyrazol-4-yl)-1-methyl-1H-imidazole-2-carboxamido)benzoyl)piperazine-1-carboxamide formate] | 241
C=CCn1cc(-c2cnc(C(=O)Nc3ccc(C(=O)NC4C5CN(C(=O)C6CCNCC6)CC54)c(Cl)c3)n2C)c(C(F)(F)F)n1 (centres unmarked) [Example 215, 5-(1-allyl-3-(trifluoromethyl)-1H-pyrazol-4-yl)-N-(3-chloro-4-((3-(piperidine-4-carbonyl)-3-azabicyclo[3.1.0]hexan-6-yl)carbamoyl)phenyl)-1-methyl-1H-imidazole-2-carboxamide formate] | 243
Cn1c(-c2cn(C3CC3)nc2C(F)(F)F)cnc1C(=O)Nc1ccc(C(=O)N2CCN(C(=O)N3CC(N)C3)CC2)c(Cl)c1 [Example 216, N-(4-(4-(3-aminoazetidine-1-carbonyl)piperazine-1-carbonyl)-3-chlorophenyl)-5-(1-cyclopropyl-3-(trifluoromethyl)-1H-pyrazol-4-yl)-1-methyl-1H-imidazole-2-carboxamide formate] | 243
Cn1c(-c2cn(C3CC3)nc2C(F)(F)F)cnc1C(=O)Nc1ccc(C(=O)N2CC[C@@H](CN)C2)c(Cl)c1 [Example 217, (S)-N-(4-(3-(aminomethyl)pyrrolidine-1-carbonyl)-3-chlorophenyl)-5-(1-cyclopropyl-3-(trifluoromethyl)-1H-pyrazol-4-yl)-1-methyl-1H-imidazole-2-carboxamide hydrochloride] | 244
Cn1c(-c2cn(CC3CC3)nc2C(F)(F)F)cnc1C(=O)Nc1ccc(C(=O)N2CCN(C(=O)N[C@H]3C[C@@H](N)C3)CC2)c(F)c1 [Example 218, N-((1s,3s)-3-aminocyclobutyl)-4-(4-(5-(1-(cyclopropylmethyl)-3-(trifluoromethyl)-1H-pyrazol-4-yl)-1-methyl-1H-imidazole-2-carboxamido)-2-fluorobenzoyl)piperazine-1-carboxamide; hydrochloride] | 244
CCc1cc(NC(=O)c2ncc(-c3cn(CC(F)F)nc3C(F)(F)F)n2C)ccc1C(=O)NCCCCCNCC(=O)OC(C)(C)C [Example 219, tert-butyl (5-(4-(5-(1-(2,2-difluoroethyl)-3-(trifluoromethyl)-1H-pyrazol-4-yl)-1-methyl-1H-imidazole-2-carboxamido)-2-ethylbenzamido)pentyl)glycinate] | 245
Cn1c(-c2cn(CC3CC3(F)F)nc2C(F)(F)F)cnc1C(=O)Nc1ccc(C(=O)NC2C3CN(C(=O)C4CCNCC4)CC32)c(Cl)c1 (centres unmarked) [Example 220, N-(3-chloro-4-((3-(piperidine-4-carbonyl)-3-azabicyclo[3.1.0]hexan-6-yl)carbamoyl)phenyl)-5-(1-((2,2-difluorocyclopropyl)methyl)-3-(trifluoromethyl)-1H-pyrazol-4-yl)-1-methyl-1H-imidazole-2-carboxamide formate] | 245
Cn1c(-c2cn(C3CC3)nc2C(F)(F)F)cnc1C(=O)Nc1ccc(C(=O)NCCCCCN)c(Cl)c1 [Example 221, N-(4-((5-aminopentyl)carbamoyl)-3-chlorophenyl)-5-(1-cyclopropyl-3-(trifluoromethyl)-1H-pyrazol-4-yl)-1-methyl-1H-imidazole-2-carboxamide hydrochloride] | 246
C#CCn1cc(-c2cnc(C(=O)Nc3ccc(C(=O)NCCOCC(C)(C)N)c(CC)c3)n2C)c(C(F)(F)F)n1 [Example 222, N-[4-[2-(2-amino-2-methyl-propoxy)ethylcarbamoyl]-3-ethyl-phenyl]-1-methyl-5-[1-prop-2-ynyl-3-(trifluoromethyl)pyrazol-4-yl]imidazole-2-carboxamide; formic acid] | 250
Cn1c(-c2cn(C3CC3)nc2C(F)(F)F)cnc1C(=O)Nc1ccc(C(=O)N2CCN(C(=O)[C@@H]3CCCNC3)CC2)c(Cl)c1 [Example 223, (R)-N-(3-chloro-4-(4-(piperidine-3-carbonyl)piperazine-1-carbonyl)phenyl)-5-(1-cyclopropyl-3-(trifluoromethyl)-1H-pyrazol-4-yl)-1-methyl-1H-imidazole-2-carboxamide hydrochloride] | 252

same assay, conditions: Acinetobacter baumannii, ATCC17961, read-out: ATCC 17961 IC90, Acinetobacter baumannii ATCC 17961, Iso-Sensitest broth

Compound | IC90 [nM]
Cn1c(-c2cn(C3CC4(CC4)C3)nc2C(F)(F)F)cnc1C(=O)Nc1ccc(C(=O)N2CCN(C(=O)N[C@H]3C[C@@H](N)C3)CC2)c(Cl)c1 [Example 210, rac-N-((1s,3s)-3-aminocyclobutyl)-4-(2-chloro-4-(1-methyl-5-(1-(spiro[2.3]hexan-5-yl)-3-(trifluoromethyl)-1H-pyrazol-4-yl)-1H-imidazole-2-carboxamido)benzoyl)piperazine-1-carboxamide hydrochloride] | 231
